Values quoted from earlier work in article PMC11340619 (Redox Biology, 2024).

System: hepatic I/R injury
Conditions: in mice; NRF2 agonist treatment; ref [14],[15]

Question: Which “hepatic I/R injury” value does the source give for `C[S+]([O-])CCCCN=C=S` (centres unmarked) [sulforaphane] here?
Answer: Its value is “alleviate hepatic I/R injury in mice”.

Question: For `C=C(CC(=O)O)C(=O)O` [itaconate], which “hepatic I/R injury” value is on record?
Answer: The value was “alleviate hepatic I/R injury in mice”.
